Laboratory results from patent US20140017336A1, “CO-ADMINISTRATION OF ARSENIC COMPOUNDS AND ANTI-HERPES VIRUS ANTI-VIRALS” (priority 2011, published 2014).

Legend:
[1] = test system: LMP1 dependent upregulation of PML NBs; assay: Transfection/inhibitor studies of LMP1 upregulation of PML NBs; assay type: cell-based
Experimental: A series of transfection/inhibitor studies were carried out to investigate the mechanism of upregulation of the PML-NB by LMP1. […] Either inhibition of ERK phosphorylation by U0126 or Stat3 dimerization by Stattic, however, prevented the LMP1 dependent upregulation of PML NBs.

[2] = test system: nonmalignant blood mononuclear cells from normal donors; settings: cited from earlier work
[3] = test system: APL and non-APL cell lines; settings: Konig et al., 1997; cited from earlier work
EBV Zta protein = assay type: in vivo, male nude mice; settings: mouse, in vivo
CNE1<EBV BX1> tumors = assay: CNE1<EBV BX1> nasopharyngeal carcinoma xenograft, tumor volume; assay type: in vivo, male nude mice; settings: 21 days of once daily treatment; GCV 100 μg/g, ATO 100 ng/g; carrier control just under double
[4] = test system: uninfected parental A549 cells; settings: 4 days, 10 nM ATO, 40 μM GCV
LCL<EBV1-13> cells = assay type: cell-based, human
EBV BMRF1 mRNA = assay type: cell-based, Epstein-Barr virus; settings: 10 nM ATO and/or 40 μM GCV
EBV Zta mRNA = assay type: cell-based, Epstein-Barr virus

O=[N+]([O-])c1ccc2c(c1)S(=O)(=O)C=C2 [Stattic]
effect on LMP1 upregulation of PML NBs [1]: prevented

C[As](C)SC[C@H](NC(=O)CC[C@H](N)C(=O)O)C(=O)NCC(=O)O [SGLU1, S-(dimethylarsino) glutathione]
toxicity against nonmalignant blood mononuclear cells [2]: low toxicity

Cc1ccc(NCCCc2ccccc2)c(N)c1 [JSH23]
effect on LMP1 upregulation of PML NBs [1]: did not affect

N#CC(=C(/N)Sc1ccccc1N)/C(C#N)=C(\N)Sc1ccccc1N [U0126]
effect on LMP1 upregulation of PML NBs [1]: prevented

Nc1nc(N)nc(Nc2ccc([As]3SCC(CO)S3)cc2)n1 (centres unmarked) [Melarsoprol, melarsoprol]
activity against APL and non-APL cell lines [3]: at least equivalent to that of arsenic trioxide

Nc1nc2c(ncn2COC(CO)CO)c(=O)[nH]1 [GCV, 9-[[2-hydroxy-1-(hydroxymethyl)-ethoxy]methyl]guanine]
Zta expression in tumor explant tissue (EBV Zta protein): Only the occasional Zta positive cell
tumor size increase over size at day 7 (pre-treatment) (CNE1<EBV BX1> tumors): approximately 25%
viability of uninfected parental cells [4]: did not affect the viability
viable cells after a third day of treatment compared with two days (LCL<EBV1-13> cells): did not result in reducing the number of viable cells
BMRF1 mRNA expression over 7 days (EBV BMRF1 mRNA): no effect
Zta mRNA expression over 7 days (EBV Zta mRNA): no effect
